{
  "source": "patent US6452001B2",
  "about": "“Diazapane derivatives useful as antagonists of neurokinin 1 receptor and methods for their formation” (Hoffmann-La Roche Inc., priority 2000, dated 2002)",
  "note": "Structures can show the parent of a compound that is named as a salt.",
  "data": [
    {"target": "T1, human NK1 receptor (Homo sapiens, UniProt P25103)", "T1 construct": "expressed in transfected cells; host or cells: CHO cells infected using the Semliki virus expression system; membrane suspension", "T1 sequence (P25103 whole entry)": "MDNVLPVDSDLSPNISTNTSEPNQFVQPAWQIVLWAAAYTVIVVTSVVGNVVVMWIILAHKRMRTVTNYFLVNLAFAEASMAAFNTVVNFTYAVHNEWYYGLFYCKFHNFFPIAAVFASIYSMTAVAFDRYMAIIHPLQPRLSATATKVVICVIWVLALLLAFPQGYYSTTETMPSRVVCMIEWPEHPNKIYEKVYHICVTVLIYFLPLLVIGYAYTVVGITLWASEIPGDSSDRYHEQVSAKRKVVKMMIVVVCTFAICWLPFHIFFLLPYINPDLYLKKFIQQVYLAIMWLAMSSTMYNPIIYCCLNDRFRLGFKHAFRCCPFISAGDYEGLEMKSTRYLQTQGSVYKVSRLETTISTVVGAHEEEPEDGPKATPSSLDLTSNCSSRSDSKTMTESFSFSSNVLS", "test": "NK1 receptor binding assay, [3H]substance P displacement", "settings": "affinity to the NK-1 receptor; human NK1 receptors in CHO cells, [3H]substance P 0.6 nM", "procedure": "The affinity of test compounds for the NK1 receptor was evaluated at human NK1 receptors in CHO cells infected with the human NK1 receptor (using the Semliki virus expression system) and radiolabelled with [^3H]substance P (final concentration 0.6 nM). Binding assays were performed in HEPES buffer (50 mM, pH 7.4) containing BSA (0.04 %) leupeptin (8 μg/ml), MnCl2 (3 mM) and phosphoramidon (2 μM). Binding assays consisted of 250 μl of membrane suspension (1.25×10^5 cells/assay tube), […] of buffer of displacing agent and 125 μl of [^3H]substance P. Displacement curves were determined with at least seven concentrations of the compound. The assay tubes were incubated for 60 min at room temperature after which time the tube contents were rapidly filtered under vacuum through GF/C filters presoaked for 60 min with PEI (0.3 %) with 2×2 ml washed of HEPES buffer (50 mM, pH 7.4). The radioactivity retained on the filters was measured by scintillation counting. All assays were performed in triplicate in at least 2 separate experiments.", "units": {"Ki": "nM"}, "values": [
      {"smiles": "CCOc1ccc2ccccc2c1CN1CCC(=O)NC(Cc2ccc(Cl)c(Cl)c2)C1=O", "note": "(racemic) [Example 17, (RS)-3-(3,4-Dichloro-benzyl)-1-(2-ethoxy-naphthalen-1-yl-methyl)-[1,4]diazepane-2,5-dione]", "Ki": 5.37},
      {"smiles": "O=C1C(Cc2ccc(Cl)c(Cl)c2)n2cnnc2CCN1Cc1cc(C(F)(F)F)cc(C(F)(F)F)c1", "note": "(racemic) [Example 20, (RS)-6-(3,5-Bis-trifluoromethyl-benzyl)-4-(3,4-dichloro-benzyl)-7,8-dihydro-6H-1,2,3a,6-tetraaza-azulen-5-one]", "Ki": 2.45},
      {"smiles": "O=C1C(Cc2ccc(Cl)c(Cl)c2)n2c(CCN3CCOCC3)nnc2CCN1Cc1cc(C(F)(F)F)cc(C(F)(F)F)c1", "note": "(racemic) [Example 21, (RS)-6-(3,5-Bis-trifluoromethyl-benzyl)-4-(3,4-dichloro-benzyl)-3-(2-morpholin-4-yl-ethyl)-7,8-dihydro-6H-1,2,3a,6-tetraaza-azulen-5-one]", "Ki": 3.89},
      {"smiles": "CN(C)Cc1nnc2n1C(Cc1ccc(Cl)c(Cl)c1)C(=O)N(Cc1cc(C(F)(F)F)cc(C(F)(F)F)c1)CC2", "note": "(racemic) [Example 23, (RS)-6-(3,5-Bis-trifluoromethyl-benzyl)-4-(3,4-dichloro-benzyl)-3-dimethylaminomethyl-7,8-dihydro-6H-1,2,3a,6-tetraaza-azulen-5-one]", "Ki": 4.37},
      {"smiles": "CN1CCCCC1c1nnc2n1C(Cc1ccc(Cl)c(Cl)c1)C(=O)N(Cc1cc(C(F)(F)F)cc(C(F)(F)F)c1)CC2", "note": "(racemic) [Example 24, (RS)-6-(3,5-Bis-trifluoromethyl-benzyl)-4-(3,4-dichloro-benzyl)-3-(1-methyl-piperidin-2-yl)-7,8-dihydro-6H-1,2,3a,6-tetraaza-azulen-5-one]", "Ki": 5.62},
      {"smiles": "CCCN=C1CCN(Cc2cc(C(F)(F)F)cc(C(F)(F)F)c2)C(=O)C(Cc2ccc(Cl)c(Cl)c2)N1", "note": "(racemic) [Example 26, (RS)-1-(3,5-Bis-trifluoromethyl-benzyl)-3-(3,4-dichloro-benzyl)-5-propylimino-[1,4]diazepan-2-one hydrochloride]", "Ki": 7.08},
      {"smiles": "COc1ccc2ccccc2c1CN1CCC(=O)N[C@@H](Cc2ccc(Cl)c(Cl)c2)C1=O", "note": "[Example 15, (3S)-3-(3,4-Dichloro-benzyl)-1-(2-methoxy-naphthalen-1-yl-methyl)-[1,4]diazepane-2,5-dione]", "Ki": 3.24},
      {"smiles": "Cc1ccc2ccccc2c1CN1CCC(=O)N[C@@H](Cc2ccc(Cl)c(Cl)c2)C1=O", "note": "[Example 16, (3S)-3-(3,4-Dichloro-benzyl)-1-(2-methyl-naphthalen-1-yl-methyl)-[1,4]diazepane-2,5-dione]", "Ki": 3.8},
      {"smiles": "COc1ccc2ccccc2c1CN1CCc2nncn2[C@@H](Cc2ccc(Cl)c(Cl)c2)C1=O", "note": "[Example 19, (4S)-4-(3,4-Dichloro-benzyl)-6-(2-methoxy-naphthalen-1-yl-methyl)-7,8-dihydro-6H-1,2,3a,6-tetraaza-azulen-5-one]", "Ki": 1.74}
    ]}
  ]
}
